Holding throughout (experiment): NCI anticancer screen, dose series, 48 h
Test [1] relates to ACHN renal.
For test [2], the system named is CAKI-1 renal.
Test [3] deals with HCC-2998 colon.
Test [4] relates to NCI-H23 lung.
Test [5] concerns OVCAR-5 ovarian.
Test [6] relates to RPMI-8226 leukemia.
Test [7] deals with SN12C renal.
Test [8] has as its system U251 CNS.
The subject of test [9] is UACC-257 melanoma.
The subject of test [10] is UO-31 renal.

Consider 20 compounds from PubChem BioAssay (NCI).

SMILES strings stand for the structures.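 Each compound was tested at five concentrations against cells in 96-well plates for 48 hours. TGI marks complete inhibition of growth.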

With `CN=C(Nc1cccc(C(F)(F)F)c1)SCc1ccc(N=C=S)cc1`, the TGI was found to be 28.7 µM in [1]; 30.4 µM in [2]; 29 µM in [3]; 31.4 µM in test [4]; 30.2 µM in test [5]; 45.8 µM in [6]. Further, the TGI turned out to be 26.9 µM in test [7], 29.8 µM in test [8], 27.3 µM in [9] and 28.4 µM in test [10].

As for `COc1cc(CNc2nc3ccccc3nc2C(=O)O)cc(OC)c1OC`, the TGI in test [1], in test [2], in test [3], in [4], in [5] and in test [6] was > 100 µM in each case. Further, the TGI in test [7], in test [8], in test [9] and in [10] was > 100 µM throughout.

Take `CN(C)CCNC(=O)c1cccc2c(NC(CCC(N)=O)C(=O)O)c3ccccc3nc12` (stereo not given): the TGI in test [1] is 18.8 µM; in test [2], > 100 µM; in test [3] it was 55.6 µM; in [4] it was 18.4 µM; in test [5], > 100 µM; in [6], > 100 µM. In addition, the TGI is 81 µM in test [7], > 100 µM in test [8], > 100 µM in test [9] and 7.15 µM in [10].

`Cc1cnc2c(c1C)C(=O)c1ccccc1C2=O`: the TGI in test [1], in [2], in [3], in test [4], in test [5] and in test [6] was > 100 µM in each case. Besides, the TGI in [7], in test [8], in test [9] and in test [10] was > 100 µM each time.

Regarding `CCCc1[nH]c2ccccc2c1-c1c(CCC)[nH]c2ccccc12`, the TGI is 31.7 µM in [1]; 38.5 µM in [2]; 42.1 µM in test [3]; 26.8 µM in test [4]; 33.6 µM in test [5]; > 100 µM in test [6]. The TGI in test [7] stood at 23.2 µM; in test [8], 21.9 µM; in [9], 43.9 µM; in test [10], 34.7 µM.

In the case of `COc1cc(Oc2nc3ccc(C(F)(F)F)cc3nc2-c2ccccc2)cc(OC)c1OC`, the TGI is 40.6 µM in test [1]; 17.3 µM in test [2]; > 100 µM in test [3]; > 100 µM in test [4]; > 100 µM in [5]; > 100 µM in [6]. The TGI in test [7] is > 100 µM; in [8], 28.5 µM; in test [9] it was > 100 µM; in [10], > 100 µM.

With `C=CCC1(C)CCCN(Cc2ccccc2)C1=O` (stereo not given), the TGI in test [1], in test [2], in test [3], in test [4], in [5] and in test [6] was > 10 µM throughout. Further, the TGI in [7], in [8], in test [9] and in test [10] was > 10 µM throughout.

`CC(C)/C(Cl)=N/OC(=O)Nc1ccc(Cl)c(Cl)c1`: the TGI in [1] came out at 3.72 µM; in [2], 3.17 µM; in test [3] it was 28.6 µM; in test [4], 29.5 µM; in test [5], 30.2 µM; in test [6], 6.92 µM. Besides, the TGI in test [7] came out at 3.42 µM; in test [8], 43.8 µM; in [9] it was 27.9 µM; in test [10], 28.6 µM.

Regarding `COc1cc(Nc2nc3cc(C(F)(F)F)ccc3n3cccc23)cc(OC)c1OC`, the TGI in [1], in [2], in [3], in test [4], in test [5] and in test [6] was > 100 µM in each case. The TGI in [7], in [8], in test [9] and in test [10] was > 100 µM throughout.

As for `CN(CCCNC(=O)c1cc(-c2ccccc2)nc2ccccc12)CCCNC(=O)c1cc(-c2ccccc2)nc2ccccc12`, the TGI in [1] was found to be 7.25 µM; in [2], 22.7 µM; in test [3] it was 3.36 µM; in [4], 16.1 µM; in [5], 4.81 µM; in test [6], 10.6 µM. Besides, the TGI is 17.4 µM in test [7], 4.05 µM in test [8], 3.34 µM in test [9] and 6.52 µM in test [10].

In the case of `CCN(CC)C1Oc2cc3c(cc2C(c2cccc(OC)c2OC)C1C)OCO3` (stereo not given), the TGI in test [1] was 29.5 µM; in [2], 14.2 µM; in test [3], 25.8 µM; in [4], 35.7 µM; in [5], 48.6 µM; in [6] it was 16.4 µM. Moreover, the TGI in [7] was > 100 µM; in test [8], 32 µM; in [9] it was 24.9 µM; in test [10], 40.5 µM.

Regarding `O=C1Cc2c([nH]c3ccc(C(=O)O)cc23)-c2ccccc2N1`, the TGI in [1], in test [2], in [3], in [4], in [5] and in test [6] was > 100 µM each time. In addition, the TGI in test [7], in test [8], in [9] and in test [10] was > 100 µM throughout.

`COc1ccc(CNc2cc(=O)n(C)c(=O)[nH]2)cc1`: the TGI in test [1], in test [2], in test [3], in test [4], in [5] and in test [6] was > 100 µM each time. In addition, the TGI in [7], in [8], in test [9] and in [10] was > 100 µM in each case.

With `CN(C)CCc1c2c(nc3ccccc13)C(=O)c1cccnc1C2=O`, the TGI in [1] was 1.39 µM; in test [2] it was 4.62 µM; in [3] it was 2.71 µM; in [4], 0.49 µM; in test [5] it was 3.44 µM; in test [6], 1.82 µM. Besides, the TGI stood at 1.92 µM in [7], 4.3 µM in test [8], 1.03 µM in test [9] and 1.88 µM in test [10].

`COC(=O)C(Cc1c[nH]c2ccccc12)N=C1Nc2ccncc2S(=O)(=O)N1c1cccc(OC(C)C)c1` (stereo not given): the TGI in test [1] is > 100 µM; in test [2] it was > 100 µM; in test [3], > 100 µM; in [4], 85.8 µM; in test [5], > 100 µM; in test [6] it was 54.4 µM. Also, the TGI in test [7], in test [8], in [9] and in test [10] was > 100 µM in each case.

In the case of `c1ccc(CC2COC(c3cccs3)=N2)cc1` (stereo not given), the TGI in [1], in [2], in test [3], in test [4], in [5] and in [6] was > 100 µM throughout. For the same compound, the TGI in test [7], in [8], in test [9] and in [10] was > 100 µM throughout.

Take `COc1cccc(/N=N/C(=NNC(=O)c2ccc(C)cc2)c2ccc(N(C)C)cc2)c1`: the TGI in test [1], in test [2], in test [3], in [4], in test [5] and in test [6] was > 100 µM each time. Further, the TGI in [7], in test [8], in test [9] and in test [10] was > 100 µM each time.

As to `O=C1c2c(Br)sc(Br)c2[C@@H](NC(=O)C(F)(F)F)C1Br` (stereo not given in full), the TGI in [1] turned out to be 6.1 µM; in [2], 8.82 µM; in [3], 7.8 µM; in test [4] it was 7.14 µM; in [5] it was 24.4 µM; in test [6], 5.92 µM. Besides, the TGI amounted to 8.33 µM in [7], 9.08 µM in test [8], 3.97 µM in test [9] and 12.5 µM in [10].

`COC(=O)C1CCC(=O)N1C(c1ccc2c(c1)OCO2)c1cc(OC)c(OC)c(OC)c1` (stereo not given): the TGI in test [1], in [2], in test [3], in test [4], in test [5] and in [6] was > 100 µM throughout. For the same compound, the TGI in test [7], in [8], in [9] and in [10] was > 100 µM in each case.

With `N#Cc1nc(C#N)n(S(=O)(=O)c2ccccc2)c1NS(=O)(=O)c1ccccc1`, the TGI in test [1] is > 100 µM; in [2], > 57.7 µM; in test [3], > 100 µM; in [4], > 100 µM; in test [5] it was > 100 µM; in [6] it was > 100 µM. Moreover, the TGI in test [7] was > 100 µM; in [8], > 100 µM; in test [9], > 100 µM; in [10], 79.6 µM.
